Like-named read-outs stand apart in the source and are kept apart here.

Experimental findings from paper PMC11505029, “Isatin Bis-Imidathiazole Hybrids Identified as FtsZ Inhibitors with On-Target Activity Against Staphylococcus aureus” (Antibiotics, 2024) are described below.

The subject of one data set is S. aureus ATCC 25923. The experiment in a line: broth microdilution antimicrobial activity, S. aureus reference strain. To be noted: Staphylococcus aureus; for IC50: ATCC25923, S. aureus ATCC 25923, mean [95% confidence interval]. Type of data set: cell-based, Staphylococcus aureus. As for the experimental part:
(§1) Reference bacterial strains of Staphylococcus aureus (ATCC 25923), Escherichia coli (ATCC 25922), and Candida albicans (ATCC 10231) were used in this study as Gram-positive, Gram-negative, and fungal models, respectively. These reference strains were purchased from the American Type Culture Collection (ATCC, Manassas, VA, USA); bacterial cultures were routinely grown at 37 °C on 5% blood agar plate, while fungal cultures on Sabouraud Dextrose Agar (Biolife Italiana S.r.l., Milan, Italy).
(§2) The dry powder of the isatin derivatives was resuspended in dimethylsulfoxide (DMSO) at 20 mM and used as stock solutions. For biological investigations, compounds were used in the range 100–0.78 µM, and the solvent in the corresponding percentage range.
(§3) The antimicrobial activity of the compounds was assessed by a well-established broth microdilution procedure in microtiter plates and in compliance with the Clinical and laboratory Standard Institute (CLSI) guidelines (Clinical and Laboratory Standards Institute, Wayne, PA, USA). In short, microbial inocula were prepared at 0.5 McFarland in PBS and, subsequently, bacterial suspensions were diluted 1:200 in Mueller–Hinton broth (Sigma-Aldrich, St. Louis, MO, USA), while fungal inoculum was diluted 1:20 in RPMI-1640 medium (Gibco®, ThermoFisher Scientific Inc., Waltham, MA, USA), containing 2% glucose and 0.3% levo-glutamine buffered to pH 7.0 with 0.165 M 3-(N-morpholino)propanesulfonic acid (MOPS). A total of 100 µL of these microbial suspensions were introduced in a 96-well microplate and incubated with 100 µL of the compounds, two-fold serially diluted in the range of 100–0.19 µM. Positive controls (microbial suspensions in regular media), negative controls (only compounds), and solvent controls (microbial suspensions incubated with DMSO dilutions) were included in the tests. The plate was incubated at 37 °C for 24 h, and subsequently, the optical density at 630 nm (OD630nm) was spectrophotometrically measured. Each experiment was carried out with three technical replicates (i.e., three wells per sample) and repeated at least two times for statistical power. […] IC50 values, corresponding to the concentration of the compound giving rise to an inhibition of growth of 50%, were obtained by interpolation on dose–response curves generated by plotting the percentages of growth inhibition, relative to the positive control (set to 100% of growth), as a function of the tested concentrations (on a logarithm scale). Statistical analysis was carried out using GraphPad Prism version 9.4.1 for Windows (GraphPad Software, San Diego, CA, USA, www.graphpad.com).
For orientation: In broth dilution the organism is exposed to a series of concentrations in liquid medium.

The subject of a further data set is C. albicans ATCC 10231. The experiment in a line: broth microdilution antimicrobial activity, C. albicans reference strain. To be noted: Candida albicans. The format is cell-based, Candida albicans. On the procedure: as §1, §2, §3
The next data set concerns E. coli ATCC 25922. The experiment in a line: broth microdilution antimicrobial activity, E. coli reference strain. Type of data set: cell-based, Escherichia coli. To be noted: Escherichia coli. As for the experimental part: as §1, §2, §3
Data set [1] concerns Vero cell line (ATCC CCL-81). Kind of data set: cell viability and proliferation assay (WST8/CCK-8). Type of data set: cell-based. The conditions noted are these: for viability at 100 µM: Chlorocebus sabaeus, Vero, 48 h, read-out: Cell proliferation, Vero. On the procedure:
(§4) Vero cell line (ATCC CCL-81) was selected as the model system to assess the effect of the isatin hybrids on normal epithelial cells, and a previously established protocol was used with minor modifications. Briefly, cells were cultured in RPMI-1640 medium supplemented with 10% fetal bovine serum (FBS) (Carlo Erba Reagents, Milan, Italy), 100 U/mL penicillin, and 100 µg/mL streptomycin at 37 °C with 5% CO2. For experiments, cells were seeded into 96-well plates at 10^4 cells/well, and incubated at 37 °C for 24 h. Following washes with PBS, the cell monolayer was incubated with 100 µL of medium containing the 2-fold serial dilutions of the compounds. Both untreated cells and cells incubated with medium containing solvent dilutions were included in each experiment as controls. The cell viability was assessed by a WST8-based assay according to the manufacturer’s instructions (CCK-8, Cell Counting Kit-8, Dojindo Molecular Technologies, Rockville, MD, USA). After 48 h of incubation, culture medium was removed from each well, the monolayer was washed with PBS, and 100 µL of fresh medium containing 10 µL of CCK-8 solution were added. After 2 h at 37 °C, the OD450nm was read, and data were expressed as the percentage of the cell viability relative to the untreated controls. The CC50 was obtained from the corresponding dose–response curves generated, as previously reported for IC50 values.

Test in data set [2]: as above
Type of data set: cell-based. The conditions noted are these: African green monkey, Vero cells (ATCC CCL-81); Vero cells; mean [95% confidence interval]. As for the experimental part: as §4

The mark [3] stands for this setting: ATCC10231, 100 μM, growth relative to positive control, mean ± SD, read-out: Microbial growth, C. albicans.
[4] abbreviates: ATCC25922, 100 μM, growth relative to positive control, mean ± SD, read-out: Microbial growth, E. coli.
[5] abbreviates: 100 μM, viability relative to untreated controls, mean ± SD.
Setting [6] is: ATCC25923, 100 μM, growth relative to positive control, mean ± SD, read-out: Microbial growth, S. aureus.
[7] abbreviates: ATCC10231, read-out: Microbial growth, C. albicans.
Setting [8] is: ATCC25922, read-out: Microbial growth, E. coli.
Setting [9] is: ATCC25923, read-out: Microbial growth, S. aureus.

`CC1(C)S[C@@H]2[C@H](NC(=O)[C@H](N)c3ccccc3)C(=O)N2[C@H]1C(=O)O` [AMP, ampicillin, reference compound] displayed an IC50 in the data set with S. aureus ATCC 25923 of 2.56 µM.
In the case of `COc1ccc2c(c1)C(c1c(Cl)nc3sc(C)cn13)(c1c(Cl)nc3sc(C)cn13)C(=O)N2` [Compound 3, 3,3-bis(6-Chloro-2-methylimidazo[2,1-b]thiazol-5-yl)-5-methoxyindolin-2-one], the activity at 100 µM amounted to 101 ± 3.6% with C. albicans ATCC 10231 (setting [3]), 97 ± 1.8% in the data set with E. coli ATCC 25922 (setting [4]) and 104 ± 8.5% in the data set with S. aureus ATCC 25923 (setting [6]). Further, in data set [1] (setting [5]), the viability at 100 µM is 90.3 ± 4.2%.
Taken in the same sequence, the figures for `Cc1cn2c(C3(c4c(Cl)nc5sc(C)cn45)C(=O)N(Cc4ccc(Cl)cc4)c4ccccc43)c(Cl)nc2s1` [Compound 4, 3,3-bis(6-Chloro-2-methylimidazo[2,1-b]thiazol-5-yl)-1-(4-chlorobenzyl)indolin-2-one] were 125 ± 6.3%, 99 ± 2.9%, 98.7 ± 0.8% and 116 ± 4%.
For `Cc1cn2c(C3(c4c(Cl)nc5sc(C)cn45)C(=O)Nc4ccc(F)cc43)c(Cl)nc2s1` [Compound 6, 3,3-bis(6-Chloro-2-methylimidazo[2,1-b]thiazol-5-yl)-5-fluoroindolin-2-one] the same measures were 101 ± 1.9%, 98.7 ± 0.9%, 101 ± 10.1% and 38.2 ± 1.5%.
Taken in the same sequence, the figures for `O=C1Nc2cc(F)ccc2C1(c1c(Cl)nc2sccn12)c1c(Cl)nc2sccn12` [Compound 7, 3,3-bis(6-Chloroimidazo[2,1-b]thiazol-5-yl)-6-fluoroindolin-2-one] were 81.1 ± 0.7%, 106 ± 2.1%, 76.9 ± 1.5% and 88.2 ± 1.9%.
`Cc1cn2c(C3(c4c(Cl)nc5sc(C)cn45)C(=O)Nc4cc(F)ccc43)c(Cl)nc2s1` [Compound 8, 3,3-bis(6-Chloro-2-methylimidazo[2,1-b]thiazol-5-yl)-6-fluoroindolin-2-one]: the activity at 100 µM with C. albicans ATCC 10231 (setting [3]) was found to be 64.2 ± 4.3%; in the data set with E. coli ATCC 25922 (setting [4]) it was 99.8 ± 2.6%; in the data set on S. aureus ATCC 25923 (setting [6]) it was 97.9 ± 2.8%. Besides, in data set [1] (setting [5]), the viability at 100 µM came to 75.2 ± 2.5%.
Consider `O=C1Nc2cc(I)ccc2C1(c1c(Cl)nc2sccn12)c1c(Cl)nc2sccn12` [Compound 9, 3,3-bis(6-Chloroimidazo[2,1-b]thiazol-5-yl)-6-iodoindolin-2-one], for which the values for the activity at 100 µM in the data set on C. albicans ATCC 10231 (setting [3]), in the data set with E. coli ATCC 25922 (setting [4]) and in the data set on S. aureus ATCC 25923 (setting [6]) were 63.7 ± 1.2%, 98.3 ± 2.5% and 80.2 ± 2.6%, respectively. For the same compound, the viability at 100 µM in data set [1] (setting [5]) is 98.2 ± 1.5%.
For `Cc1cn2c(C3(c4c(Cl)nc5sc(C)cn45)C(=O)Nc4cc(I)ccc43)c(Cl)nc2s1` [Compound 10, 3,3-bis(6-Chloro-2-methylimidazo[2,1-b]thiazol-5-yl)-6-iodoindolin-2-one] the same measures were 59.6 ± 0.4%, 94.3 ± 2.7%, 87.7 ± 2.5% and 78.8 ± 5.5%.
Taken in the same sequence, the figures for `Cc1cn2c(C3(c4c(Cl)nc5sc(C)cn45)C(=O)Nc4cc(OC(F)(F)F)ccc43)c(Cl)nc2s1` [Compound 12, 3,3-bis(6-Chloro-2-methylimidazo[2,1-b]thiazol-5-yl)-6-(trifluoromethoxy)indolin-2-one] were 118.1 ± 0.2%, 96.6 ± 1%, 110 ± 12.8% and 56.1 ± 1.1%.
For the compound `O=C1N(Cc2ccccc2)c2ccccc2C1(c1c(Cl)nc2sccn12)c1c(Cl)nc2sccn12` [Compound 13, 1-Benzyl-3,3-bis(6-chloroimidazo[2,1-b]thiazol-5-yl)indolin-2-one], the activity at 100 µM with C. albicans ATCC 10231 (setting [3]) was 113.7 ± 0.7%; with E. coli ATCC 25922 (setting [4]), 96.2 ± 4%; in the data set on S. aureus ATCC 25923 (setting [6]), 92 ± 4%. Also, the “Cell proliferation, Vero” value in data set [1] (setting [5]) is “less active”. Further, in data set [1] (setting [5]), the viability at 100 µM is 56.8 ± 0.1%.
In the case of `Cc1cn2c(C3(c4c(Cl)nc5sc(C)cn45)C(=O)N(Cc4ccccc4)c4ccccc43)c(Cl)nc2s1` [Compound 14, 1-Benzyl-3,3-bis(6-chloro-2-methylimidazo[2,1-b]thiazol-5-yl)indolin-2-one], the results for the activity at 100 µM in the data set on C. albicans ATCC 10231 (setting [3]), in the data set on E. coli ATCC 25922 (setting [4]) and in the data set with S. aureus ATCC 25923 (setting [6]) were 116 ± 1.2%, 99 ± 0.4% and 107 ± 3.9%, respectively. Moreover, the viability at 100 µM in data set [1] (setting [5]) was found to be 104 ± 1.9%.
`Cc1cn2c(C3(c4c(Cl)nc5sc(C)cn45)C(=O)N(CC=Cc4ccccc4)c4ccccc43)c(Cl)nc2s1` [Compound 16, 3,3-bis(6-Chloro-2-methylimidazo[2,1-b]thiazol-5-yl)-1-cinnamylindolin-2-one]: the activity at 100 µM in the data set with C. albicans ATCC 10231 (setting [3]) amounted to 60.3 ± 1.1%; in the data set with E. coli ATCC 25922 (setting [4]), 69.2 ± 0.9%; in the data set on S. aureus ATCC 25923 (setting [6]), 69.1 ± 4.3%. Further, the viability at 100 µM in data set [1] (setting [5]) is 93.3 ± 1.9%.
As for `O=C1Nc2cccc(C(F)(F)F)c2C1(O)c1c(Cl)nc2sccn12` (stereo not shown) [Compound 17, 3-(6-Chloroimidazo[2,1-b]thiazol-5-yl)-3-hydroxy-4-(trifluoromethyl)indolin-2-one], the activity at 100 µM amounted to 132 ± 3.9% in the data set with C. albicans ATCC 10231 (setting [7]), 104 ± 1.6% with E. coli ATCC 25922 (setting [8]) and 149 ± 3.8% with S. aureus ATCC 25923 (setting [9]). Further, the viability at 100 µM in data set [1] is 103.1 ± 1%.
Turning to `Cc1cn2c(C3(O)C(=O)Nc4cccc(C(F)(F)F)c43)c(Cl)nc2s1` (stereo not shown) [Compound 18, 3-(6-Chloro-2-methylimidazo[2,1-b]thiazol-5-yl)-3-hydroxy-4-(trifluoromethyl)indolin-2-one], the activity at 100 µM is 97.1 ± 0.9% in the data set on C. albicans ATCC 10231 (setting [7]), 109 ± 3.5% in the data set with E. coli ATCC 25922 (setting [8]) and 101 ± 3.1% in the data set on S. aureus ATCC 25923 (setting [9]). The viability at 100 µM in data set [1] was 93.1 ± 2.9%.
As to `O=C1Nc2cccc(I)c2C1(O)c1c(Cl)nc2sccn12` (stereo not shown) [Compound 19, 3-(6-Chloroimidazo[2,1-b]thiazol-5-yl)-3-hydroxy-4-iodoindolin-2-one], the activity at 100 µM in the data set with C. albicans ATCC 10231 (setting [7]) amounted to 131 ± 7.5%; in the data set on E. coli ATCC 25922 (setting [8]), 95.2 ± 2.6%; in the data set on S. aureus ATCC 25923 (setting [9]), 148 ± 4.8%. Besides, the viability at 100 µM in data set [1] was 98.9 ± 2.6%.
For `Cc1cn2c(C3(O)C(=O)Nc4cccc(I)c43)c(Cl)nc2s1` (stereo not shown) [Compound 20, 3-(6-Chloro-2-methylimidazo[2,1-b]thiazol-5-yl)-3-hydroxy-4-iodoindolin-2-one] the same measures were 108 ± 2.7%, 98 ± 1.3%, 104 ± 4% and 101 ± 2.4%.
As to `COc1cccc2c1C(=O)c1c(O)c3c(c(O)c1C2=O)C[C@@](O)(C(=O)CO)C[C@@H]3O[C@H]1C[C@H](N)[C@H](O)[C@H](C)O1` [DOX, doxorubicin, reference compound], the CC50 at 48 h in data set [2] turned out to be 70.6 µM.
`CNC(C)C1CCC(N)C(OC2C(N)CC(N)C(OC3OCC(C)(O)C(NC)C3O)C2O)O1` (stereo not shown) [GMN, gentamicin, reference compound] had an IC50 in the data set with S. aureus ATCC 25923 of 4 µM.

By IC50 is commonly meant the concentration needed to halve the response being measured. A high value points to a need for much substance. The term CC50 denotes the concentration giving 50% cytotoxicity. Low values mean harm at low concentration, high ones better tolerance by the cells.
